Key:
EZH2 = target: T1, EZH2 (Mus musculus, UniProt Q61188); assay: H3K27me3 on the Rasgrp1 promoter in Arid1a^fl/fl organoids treated with EZH2 inhibitor; type: cell-based; conditions: Arid1a^fl/fl organoids treated with GSK126
T1 construct: endogenous in cells; host or cells: Arid1a^fl/fl mouse urothelial organoids
Description: CUT&Tag was performed following the published protocol, with some modifications. Briefly, cells were harvested and prepared into homogenous suspension in PBS, aliquoted with 10% DMSO and slow-frozen to −80° C. in isopropanol freezing chambers. CUT&Tag was performed with native nuclei. Cells were thawed at 37° C. for 1 minute, washed twice with PBS and centrifugation at 600×g for 3 minutes, and resuspended into ice-cold NE1 buffer (20 mM K-HEPES pH 7.9, 10 mM KCl, […], 20% Glycerol, 0.5 mM spermidine, and EDTA-free protease inhibitor). Cells were kept on ice for 10 minutes, centrifuged at 1400×g for 3 minutes using a swinging-bucket rotor, pellets were resuspended in Wash buffer (20 mM Na-HEPES pH 7.5, 150 mM NaCl, 0.5 mM spermidine, and EDTA-free protease inhibitor), nuclei were counted using Vi-CELL© Cell Viability Analyzer (Beckman Coulter) and aliquoted into 0.6 mL low-binding flip-cap tubes for CUT&Tag experiments.
500,000 nuclei were used for each CUT&Tag experiment targeting a histone posttranslational modification, while 200,000 nuclei were used for ARID1A. Bio-Mag®Plus Concanavalin A coated magnetic beads (Bangs Laboratories) were equilibrated with binding buffer (20 mM K-HEPES pH7.9, 10 mM KCl, and 1 mM each CaCl2 and MnCl2). To each sample, 10 μL of activated beads were added and held at room temperature for 5 minutes with occasional gentle mixing. […]

RASGRP1 protein = assay: RASGRP1 IF in Arid1a^fl/fl organoids after GSK126; type: cell-based, mouse; conditions: Arid1a^fl/fl cells treated with GSK126
Description: Organoids were fixed using 4% PFA for 2 hours at room temperature on a shaker followed by a 30-minute incubation on ice to achieve complete removal of EHS. Intact organoids were collected as a pellet after centrifugation at 1400 rpm for 5 min and washed with ddH2O. The pellet was further washed with 0.2% BSA and organoids were mixed with HistoGel™ (Epredia). The organoid and HistoGel™ suspension was centrifuged at 1400 rpm for 5 minutes and kept on ice for 30 minutes. The solidified HistoGel™ structure was stored at 4° C. until ready for processing and paraffin embedding. Organoid sections ([…]) were deparaffinized in CitriSolv™ (Fisher, 4355121) for 10 minutes and rehydrated using 100% (2×), 90% (2×) and 70% (2×) ethanol for 5 minutes each. Antigen retrieval was performed by preheating in sodium citrate buffer (pH 6.0) solution for 10 minutes at 121° C. in a pressure cooker. Organoid sections were blocked in 1% BSA solution for 1 hour followed by overnight incubation in primary antibody (anti-RASGRP1: Fisher) at 4° C. in a humidified chamber. Secondary antibody (Alexa Fluor® 594: Invitrogen) incubation was performed for 1 hour at room temperature. All slides were mounted using ProLong™ gold mounting media with DAPI (Fisher Scientific, P36935). […]

Rasgrp1 mRNA = assay: QPCR of Rasgrp1 in Arid1a^fl/fl organoids after GSK126; type: cell-based, mouse; conditions: Arid1a^fl/fl cells; GSK126 12.5 μM
eEF2 phosphorylation = assay: Immunoblot of phospho-eEF2 and total eEF2 in Arid1a^fl/fl organoids +/- GSK126; type: cell-based, mouse
Description: Cell lysates were prepared using RIPA buffer (Fisher) containing phosphatase inhibitor (Sigma) and protease inhibitor cocktail (Sigma). The lysates were incubated on ice for 30 minutes with periodic mixing by vortex and centrifuged at 13,000×g at 4° C. for 10 minutes. The supernatants were subjected to SDS-PAGE and transferred to a PDVF membrane (Bio-Rad). Membranes were blocked with 5% milk for 1 hour at room temperature. Primary antibodies were diluted in 5% milk and incubated overnight at 4° C. Blots were incubated with horse radish peroxidase- (HRP-) conjugated secondary antibodies (goat anti-rabbit IgG (Fisher) or goat anti-mouse IgG (Fisher)) in 5% milk for 1 hour at room temperature. West Pico (Fisher) was used to detect immunoreactive bands on the blot using the ChemiDoc Touch Imaging System (Bio-Rad). […]

[1] = tested on: Arid1a^fl/fl mouse urothelium; assay: γH2AX and CC3 staining of Arid1a^fl/fl urothelium, A-484954 pretreatment before 9-day BBN; type: in vivo; conditions: Arid1a^fl/fl mice pretreated with A-484954 before a 9-day course of BBN
Description: (§1) Bladder samples were collected, fixed in 4% paraformaldehyde (PFA), dehydrated with ethanol, and embedded in paraffin wax. Paraffin blocks were sectioned (5 μm) using a rotary microtome and hematoxylin and eosin (H&E) stained. Immunohistochemistry (IHC) staining was performed after rehydrating the tissue. In brief, antigen retrieval was performed by preheating in sodium citrate buffer (pH 6.0 or pH 9) solution for 7-30 minutes at 95° C.-125° C. in a pressure cooker. Hydrogen peroxidase (Vector Laboratories) treatment was done for 5 minutes to quench endogenous peroxides. Tissue was blocked in 1% BSA for 1 hour. Primary antibodies were applied and incubated at room temperature for 1 hour in a humidified chamber followed by secondary antibody (EnVision™ system HRP-labeled polymer, Dako, K4003). Color development was achieved by applying 3,3′-diaminobenzidine (DAB) solution (Agilent Technology) for 2 to 5 minutes, depending on the primary antibody. The sections were counterstained with hematoxylin (Agilent Technology), washed, and cover-slipped using aqueous-based mounting medium (Agilent Technology). All IHC slides were scanned using Aperio ScanScope AT Turbo (Leica Biosystems). […]

[2] = tested on: protein synthesis in Arid1a^fl/fl bladders; assay: In vivo puromycin incorporation assay in Arid1a^fl/fl mice after eEF2K inhibitor treatment; parameters: species or system mouse; conditions: A-484954 10 mg/kg IP daily for 15 days
Description: Immunofluorescent (IF) staining was performed in the following manner. Antigen retrieval was conducted by preheating in sodium citrate buffer (pH 6.0) for 30 minutes at 95° C. in a pressure cooker. Tissue was blocked in 1% BSA solution for 2 hours or in M.O.M® blocking reagent (Vector Laboratories) for 1 hour at room temperature, followed by blocking in 1% BSA solution for 2 hours. Primary antibodies were applied overnight at 4° C. in a humidified chamber, and secondary antibodies (Alexa Fluor® 594; Alexa Fluor® 488; or Alexa Fluor® 647 (Invitrogen)) were applied for 1 hour at room temperature. All IF slides were mounted using ProLong™ gold mounting media with DAPI (Fisher Scientific, P36935). IF slides were scanned using an Aperio Scanscope FL (Leica Biosystems). The following primary antibodies were used for IF study: anti-Cytokeratin 5 (Biolegend Inc), anti-puromycin (EMD Millipore), anti-p-eEF2K (S366) (Cell Signaling Technology), anti-ARID1A (Sigma), or anti-Cytokeratin 5 (Abcam). Image analysis was done using semiautomated image analysis software (HALO, Indica Labs).
For the in vivo puromycin incorporation assay, mice were injected i.p. with 200 μL of 2.5 mM puromycin (Fisher) and euthanized after 1 hour. For in vitro puromycin incorporation assay, cells were treated with 1 μM puromycin for 30 minutes at 37° C. […]

eEF2K = target: T2, eEF2K (Mus musculus, UniProt O08796); assay: IHC of phospho-eEF2 (T56) in Arid1a^fl/fl mice after eEF2K inhibitor treatment; type: in vivo; conditions: A-484954 10 mg/kg IP daily for 15 days
T2 construct: from tissue; host or cells: bladder urothelium of Arid1a^fl/fl mice dosed in vivo
T2 sequence (O08796 1-724): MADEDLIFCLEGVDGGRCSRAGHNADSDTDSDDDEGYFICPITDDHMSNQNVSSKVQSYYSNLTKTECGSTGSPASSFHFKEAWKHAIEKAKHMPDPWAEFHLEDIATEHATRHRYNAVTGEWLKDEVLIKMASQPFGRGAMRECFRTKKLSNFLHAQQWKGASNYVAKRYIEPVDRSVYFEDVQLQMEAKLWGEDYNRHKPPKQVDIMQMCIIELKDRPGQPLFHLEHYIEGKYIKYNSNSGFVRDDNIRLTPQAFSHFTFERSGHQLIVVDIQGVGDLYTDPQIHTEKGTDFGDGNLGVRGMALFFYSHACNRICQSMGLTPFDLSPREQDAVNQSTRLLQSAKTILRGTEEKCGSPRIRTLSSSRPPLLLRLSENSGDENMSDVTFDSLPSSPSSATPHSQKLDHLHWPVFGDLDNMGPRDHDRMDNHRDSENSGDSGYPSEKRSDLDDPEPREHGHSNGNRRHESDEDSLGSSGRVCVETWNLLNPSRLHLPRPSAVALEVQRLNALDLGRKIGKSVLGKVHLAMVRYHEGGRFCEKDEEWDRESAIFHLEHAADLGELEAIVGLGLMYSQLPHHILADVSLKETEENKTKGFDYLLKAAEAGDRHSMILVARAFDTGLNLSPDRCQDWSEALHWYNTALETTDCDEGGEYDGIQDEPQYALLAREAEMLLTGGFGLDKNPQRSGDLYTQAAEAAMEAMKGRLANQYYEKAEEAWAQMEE
Description: as §1

T1 sequence (Q61188 whole entry): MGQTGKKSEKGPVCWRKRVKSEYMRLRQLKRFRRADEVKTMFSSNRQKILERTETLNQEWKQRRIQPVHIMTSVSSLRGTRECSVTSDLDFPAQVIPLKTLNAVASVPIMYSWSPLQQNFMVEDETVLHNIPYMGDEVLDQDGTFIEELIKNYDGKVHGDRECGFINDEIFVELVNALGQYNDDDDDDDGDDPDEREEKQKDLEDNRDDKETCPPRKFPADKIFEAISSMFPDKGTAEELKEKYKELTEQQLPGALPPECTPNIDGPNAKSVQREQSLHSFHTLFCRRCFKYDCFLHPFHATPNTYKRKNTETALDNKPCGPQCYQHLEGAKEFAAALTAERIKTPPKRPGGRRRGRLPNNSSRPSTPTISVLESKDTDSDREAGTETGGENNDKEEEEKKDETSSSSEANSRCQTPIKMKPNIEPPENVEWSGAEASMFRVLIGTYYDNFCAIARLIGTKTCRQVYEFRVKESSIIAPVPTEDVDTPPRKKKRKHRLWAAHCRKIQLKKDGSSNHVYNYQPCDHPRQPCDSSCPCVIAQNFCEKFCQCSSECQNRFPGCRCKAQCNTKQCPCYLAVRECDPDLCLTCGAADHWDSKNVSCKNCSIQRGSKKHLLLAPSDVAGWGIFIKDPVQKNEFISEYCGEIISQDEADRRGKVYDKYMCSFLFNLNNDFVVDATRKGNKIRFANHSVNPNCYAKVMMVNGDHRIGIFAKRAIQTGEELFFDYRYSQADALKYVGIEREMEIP
T1 sequence (Q921E6 whole entry partner): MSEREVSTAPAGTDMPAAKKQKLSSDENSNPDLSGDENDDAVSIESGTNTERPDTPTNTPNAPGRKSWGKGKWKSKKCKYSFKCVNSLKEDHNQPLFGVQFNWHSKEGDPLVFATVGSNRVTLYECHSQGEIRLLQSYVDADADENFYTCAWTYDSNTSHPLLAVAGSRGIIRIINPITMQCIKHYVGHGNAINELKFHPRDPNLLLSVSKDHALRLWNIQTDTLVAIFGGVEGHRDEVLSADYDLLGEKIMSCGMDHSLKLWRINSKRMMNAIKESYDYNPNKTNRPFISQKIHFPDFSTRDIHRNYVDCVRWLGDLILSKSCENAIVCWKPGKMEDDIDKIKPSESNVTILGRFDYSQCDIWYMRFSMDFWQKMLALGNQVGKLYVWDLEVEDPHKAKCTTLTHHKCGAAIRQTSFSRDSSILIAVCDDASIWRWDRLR
T1 sequence (Q80U70 whole entry partner): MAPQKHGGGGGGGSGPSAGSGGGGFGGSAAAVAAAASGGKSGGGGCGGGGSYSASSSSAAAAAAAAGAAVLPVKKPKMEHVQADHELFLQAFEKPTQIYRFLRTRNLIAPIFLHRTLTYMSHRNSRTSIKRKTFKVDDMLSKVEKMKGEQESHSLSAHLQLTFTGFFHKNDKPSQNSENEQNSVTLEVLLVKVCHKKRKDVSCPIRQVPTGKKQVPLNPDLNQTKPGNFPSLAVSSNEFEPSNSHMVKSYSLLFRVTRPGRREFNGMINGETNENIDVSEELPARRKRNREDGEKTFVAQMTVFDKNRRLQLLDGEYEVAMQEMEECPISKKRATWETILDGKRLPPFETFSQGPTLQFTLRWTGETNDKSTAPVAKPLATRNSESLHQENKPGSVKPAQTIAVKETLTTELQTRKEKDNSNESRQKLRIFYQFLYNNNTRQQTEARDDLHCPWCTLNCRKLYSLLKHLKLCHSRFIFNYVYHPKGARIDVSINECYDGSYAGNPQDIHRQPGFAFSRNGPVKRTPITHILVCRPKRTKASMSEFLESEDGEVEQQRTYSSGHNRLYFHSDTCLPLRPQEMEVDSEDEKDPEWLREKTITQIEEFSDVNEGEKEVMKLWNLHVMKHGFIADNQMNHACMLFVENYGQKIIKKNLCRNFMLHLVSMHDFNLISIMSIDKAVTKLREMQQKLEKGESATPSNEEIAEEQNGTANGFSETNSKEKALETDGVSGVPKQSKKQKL
T1 sequence (Q60972 whole entry partner): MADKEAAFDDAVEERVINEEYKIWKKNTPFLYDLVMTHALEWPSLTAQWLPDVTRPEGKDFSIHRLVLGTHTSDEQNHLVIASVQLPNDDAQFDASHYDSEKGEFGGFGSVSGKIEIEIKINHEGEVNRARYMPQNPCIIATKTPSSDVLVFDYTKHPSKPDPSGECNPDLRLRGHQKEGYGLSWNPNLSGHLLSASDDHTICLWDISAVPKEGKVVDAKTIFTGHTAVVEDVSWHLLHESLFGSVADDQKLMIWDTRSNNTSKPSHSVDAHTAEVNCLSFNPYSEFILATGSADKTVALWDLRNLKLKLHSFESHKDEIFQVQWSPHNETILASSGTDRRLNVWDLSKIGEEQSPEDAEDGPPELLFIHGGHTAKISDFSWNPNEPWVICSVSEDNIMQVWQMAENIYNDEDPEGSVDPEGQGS

| H3K27me3 on the Rasgrp1 promoter (EZH2) | eEF2 phosphorylation (T56) (eEF2K) | SMILES | RASGRP1 protein levels (RASGRP1 protein) | Rasgrp1 mRNA levels (Rasgrp1 mRNA) | eEF2 phosphorylation (eEF2 phosphorylation) | DNA damage (γH2AX) [1] | apoptosis (CC3) [1] | protein synthesis (puromycin incorporation) [2] |
| --- | --- | --- | --- | --- | --- | --- | --- | --- |
| decreased H3K27me3 |  | CC[C@H](C)n1cc(C)c2c(C(=O)NCc3c(C)cc(C)[nH]c3=O)cc(-c3ccc(N4CCNCC4)nc3)cc21 [GSK126] | restored | restored | decrease in eEF2 phosphorylation |  |  |  |
|  | attenuation of eEF2 phosphorylation | CCn1c(=O)c2cc(C(N)=O)c(N)nc2n(C2CC2)c1=O [A-484954] |  |  |  | markedly decreased | markedly decreased | restoration of protein synthesis |

From US20240350488A1, “METHODS OF TREATING SWI/SNF DEREGULATED CANCERS” (Fred Hutchinson Cancer Center, priority 2023, published 2024)
